Source: patent US20230117470A1, “SUBSTITUTED PYRAZOLE COMPOUNDS AS TOLL RECEPTOR INHIBITORS” (BRISTOL-MYERS SQUIBB COMPANY, priority 2019, published 2023)

Assays:
Format in all cases: cell-based
[1] = molecular target: T1, human TLR9 (Homo sapiens, UniProt Q9NR96); assay: TLR9 inhibition reporter assay (HEK-Blue cells, SEAP reporter, ODN2006 stimulation); settings: HEK-Blue cells overexpressing human TLR9, SEAP reporter, ODN2006 5 nM
T1 construct: host or cells: HEK-Blue cells
T1 sequence (Q9NR96 26-1032): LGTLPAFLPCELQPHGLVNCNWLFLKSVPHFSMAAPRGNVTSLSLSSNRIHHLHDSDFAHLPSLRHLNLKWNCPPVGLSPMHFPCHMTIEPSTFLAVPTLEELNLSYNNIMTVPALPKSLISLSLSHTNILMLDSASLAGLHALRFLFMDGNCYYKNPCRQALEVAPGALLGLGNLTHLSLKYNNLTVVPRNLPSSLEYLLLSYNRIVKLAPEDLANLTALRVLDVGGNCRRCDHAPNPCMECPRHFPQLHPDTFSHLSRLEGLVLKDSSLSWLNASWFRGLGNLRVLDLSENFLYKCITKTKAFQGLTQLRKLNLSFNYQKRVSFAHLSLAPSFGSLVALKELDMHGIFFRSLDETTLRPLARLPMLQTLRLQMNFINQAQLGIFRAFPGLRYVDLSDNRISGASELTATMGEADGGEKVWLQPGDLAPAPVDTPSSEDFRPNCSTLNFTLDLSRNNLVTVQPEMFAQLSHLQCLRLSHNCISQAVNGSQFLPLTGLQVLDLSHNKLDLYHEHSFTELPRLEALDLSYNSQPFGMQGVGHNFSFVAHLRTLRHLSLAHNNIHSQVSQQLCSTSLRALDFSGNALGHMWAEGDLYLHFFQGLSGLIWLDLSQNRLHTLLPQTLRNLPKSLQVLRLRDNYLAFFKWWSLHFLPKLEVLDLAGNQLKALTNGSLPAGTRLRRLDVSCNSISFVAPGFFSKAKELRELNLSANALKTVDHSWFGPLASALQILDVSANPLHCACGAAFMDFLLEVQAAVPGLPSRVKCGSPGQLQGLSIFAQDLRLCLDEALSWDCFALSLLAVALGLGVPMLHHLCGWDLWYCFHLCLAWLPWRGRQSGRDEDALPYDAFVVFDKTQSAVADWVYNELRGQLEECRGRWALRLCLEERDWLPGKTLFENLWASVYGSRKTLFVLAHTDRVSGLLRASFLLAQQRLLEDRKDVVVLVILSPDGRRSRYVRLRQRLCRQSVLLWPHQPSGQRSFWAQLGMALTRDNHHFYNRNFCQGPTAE
Experimental: (§1) TLR7/8/9 Inhibition Reporter Assays
(§2) HEK-Blue™-cells (Invivogen) overexpressing human TLR7, TLR8 or TLR9 receptors were used for screening inhibitors of these receptors using an inducible SEAP (secreted embryonic alkaline phosphatase) reporter gene under the control of the IFN-β minimal promoter fused to five NF-κB and AP-1-binding sites. Briefly, cells are seeded into Greiner 384 well plates (15000 cells per well for TLR7, 20,000 for TLR8 and 25,000 for TLR9) and then treated with test compounds in DMSO to yield a final dose response concentration range of 0.05 nM-50 μM. After a 30 minute compound pre-treatment at room temperature, the cells are then stimulated with a TLR7 ligand (gardiquimod at a final concentration of 7.5 μM), TLR8 ligand (R848 at a final concentration of 15.9 μM) or TLR9 ligand (ODN2006 at a final concentration of 5 nM) to activate NF-κB and AP-1 which induce the production of SLA After a 22 hour incubation at 37° C., […], SEAP levels are determined with the addition of HEK-Blue™ Detection reagent (Invivogen), a cell culture medium that allows for detection of SLAP, according to manufacturer's specifications. The percent inhibition is determined as the % reduction in the HEK-Blue signal present in wells treated with agonist plus DMSO alone compared to wells treated with a known inhibitor.

[2] = molecular target: T2, human TLR7 (Homo sapiens, UniProt Q9NYK1); assay: TLR7 inhibition reporter assay (HEK-Blue cells, SEAP reporter, gardiquimod stimulation); settings: HEK-Blue cells overexpressing human TLR7, SEAP reporter, gardiquimod 7.5 μM
T2 construct: host or cells: HEK-Blue cells
T2 sequence (Q9NYK1 27-1049): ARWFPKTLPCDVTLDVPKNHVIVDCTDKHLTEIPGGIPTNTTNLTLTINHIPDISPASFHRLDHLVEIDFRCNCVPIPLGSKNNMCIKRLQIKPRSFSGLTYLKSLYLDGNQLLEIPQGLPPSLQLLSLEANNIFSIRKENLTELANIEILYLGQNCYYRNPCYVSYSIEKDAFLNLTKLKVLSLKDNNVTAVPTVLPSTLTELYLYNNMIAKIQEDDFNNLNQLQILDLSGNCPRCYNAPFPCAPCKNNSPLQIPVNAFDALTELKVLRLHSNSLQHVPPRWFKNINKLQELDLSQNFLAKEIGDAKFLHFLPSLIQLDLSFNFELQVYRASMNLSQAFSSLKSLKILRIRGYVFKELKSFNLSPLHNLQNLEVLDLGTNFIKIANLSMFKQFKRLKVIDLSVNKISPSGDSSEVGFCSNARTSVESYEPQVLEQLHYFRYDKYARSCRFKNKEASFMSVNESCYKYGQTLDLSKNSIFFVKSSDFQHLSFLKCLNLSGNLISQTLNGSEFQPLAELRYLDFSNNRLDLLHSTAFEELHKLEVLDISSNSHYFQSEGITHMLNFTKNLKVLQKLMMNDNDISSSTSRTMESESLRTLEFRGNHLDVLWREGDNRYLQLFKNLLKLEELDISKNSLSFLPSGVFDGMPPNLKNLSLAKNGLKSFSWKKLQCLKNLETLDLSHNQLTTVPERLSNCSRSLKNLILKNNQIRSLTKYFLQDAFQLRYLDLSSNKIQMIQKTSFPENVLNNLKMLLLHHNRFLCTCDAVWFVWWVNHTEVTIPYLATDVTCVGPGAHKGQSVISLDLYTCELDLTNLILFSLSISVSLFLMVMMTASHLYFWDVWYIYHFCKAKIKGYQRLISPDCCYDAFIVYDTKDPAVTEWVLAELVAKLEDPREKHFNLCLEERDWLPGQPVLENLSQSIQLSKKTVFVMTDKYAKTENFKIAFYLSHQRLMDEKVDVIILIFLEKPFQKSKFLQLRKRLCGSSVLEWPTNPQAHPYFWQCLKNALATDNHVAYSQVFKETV
Experimental: as §1, §2

[3] = molecular target: T3, human TLR8 (Homo sapiens, UniProt Q9NR97); assay: TLR8 inhibition reporter assay (HEK-Blue cells, SEAP reporter, R848 stimulation); settings: HEK-Blue cells overexpressing human TLR8, SEAP reporter, R848 15.9 μM
T3 construct: host or cells: HEK-Blue cells
T3 sequence (Q9NR97 27-1041): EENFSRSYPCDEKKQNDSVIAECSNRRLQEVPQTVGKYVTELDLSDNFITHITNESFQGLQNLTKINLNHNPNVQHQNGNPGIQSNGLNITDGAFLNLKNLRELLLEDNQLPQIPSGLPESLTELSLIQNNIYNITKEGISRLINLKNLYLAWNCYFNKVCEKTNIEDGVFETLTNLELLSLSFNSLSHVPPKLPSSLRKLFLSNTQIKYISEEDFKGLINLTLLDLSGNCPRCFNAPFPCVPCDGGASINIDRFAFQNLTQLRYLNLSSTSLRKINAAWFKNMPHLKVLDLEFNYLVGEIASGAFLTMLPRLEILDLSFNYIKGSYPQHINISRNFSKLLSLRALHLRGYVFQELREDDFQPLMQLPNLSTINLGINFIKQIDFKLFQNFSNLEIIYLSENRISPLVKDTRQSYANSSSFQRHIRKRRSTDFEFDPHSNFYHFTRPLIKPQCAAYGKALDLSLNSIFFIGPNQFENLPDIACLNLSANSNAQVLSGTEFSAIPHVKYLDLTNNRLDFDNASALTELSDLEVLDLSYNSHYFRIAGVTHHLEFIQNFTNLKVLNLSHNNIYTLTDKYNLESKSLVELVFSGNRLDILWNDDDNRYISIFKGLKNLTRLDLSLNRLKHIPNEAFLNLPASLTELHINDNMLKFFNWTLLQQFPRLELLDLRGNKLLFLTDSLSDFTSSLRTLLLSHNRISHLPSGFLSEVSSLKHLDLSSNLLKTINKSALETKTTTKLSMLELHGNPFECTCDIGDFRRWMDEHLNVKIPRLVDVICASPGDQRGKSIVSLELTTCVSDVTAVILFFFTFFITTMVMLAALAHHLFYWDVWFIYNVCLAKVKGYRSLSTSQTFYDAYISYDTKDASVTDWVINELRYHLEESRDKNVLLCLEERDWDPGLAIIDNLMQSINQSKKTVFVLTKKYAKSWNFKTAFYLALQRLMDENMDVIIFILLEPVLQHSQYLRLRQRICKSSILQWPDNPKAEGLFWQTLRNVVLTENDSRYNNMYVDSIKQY
Experimental: as §1, §2

IC50 [1] [nM]	IC50 [2] [nM]	IC50 [3] [nM]	SMILES
> 50000	15.5	11.1	COc1cc(-c2[nH]nc(-c3ccc(C4CN(C(=O)CN(C)C)C4)cc3)c2C(C)C)cn2ncnc12 [compound 335]
6870	8.79	4.78	Cc1cc(-c2[nH]nc(C(=O)NC3CN(Cc4ncn(C)n4)C3)c2C(C)C)cn2ncnc12 [Example 159]
3390	0.89	7.55	Cc1cc(-c2[nH]nc(C(=O)NC3CCN(CCC(C)(C)C)CC3)c2C(C)C)cn2ncnc12 [Example 75]
28600	7.72	31.5	Cc1cc(-c2[nH]nc(C(=O)NC3CCC(NC4(C)COC4)CC3)c2C(C)C)cn2ncnc12 (stereo not drawn) [Example 124]
> 50000	126	132	COc1cc(-c2[nH]nc(-c3cnc(C4CCN(CCCF)CC4)cn3)c2C(C)C)cn2ncnc12 [Example 399]
> 50000	24.8	14.6	Cc1cc(-c2[nH]nc(C(=O)N[C@H]3CC[C@@H](N)CC3)c2C(C)C)cn2ncnc12 [Example 63]
> 50000	29.4	12.2	COc1cc(-c2[nH]nc(-c3cnc(C4CCN(CC5CC5)CC4)cn3)c2C(C)C)cn2ncnc12 [Example 378]
> 50000	3.08	33.3	Cc1cc(-c2[nH]nc(-c3nc4c(s3)CCNC4)c2C(C)C)cn2ncnc12 [Example 221]
18000	2.9	4.22	Cc1cc(-c2[nH]nc(C(=O)N[C@@H]3CCCNC3)c2C(C)C)cn2ncnc12 [Example 52]
5300	0.61	0.06	Cc1cc(-c2[nH]nc(C(=O)N[C@@H]3CCCN(C)C3)c2C(C)C)cn2ncnc12 [Example 160]
7810	4.15	3.14	Cc1cc(-c2[nH]nc(C(=O)N3CCC(C(N)=O)CC3)c2C(C)C)cn2ncnc12 [Example 15]
35600	8.2	19.2	Cc1cc(-c2[nH]nc(C3CCC(N(C)C(=O)C4CN(C(C)C)C4)CC3)c2C(C)C)cn2ncnc12 (single isomer, unassigned) [Example 304]
> 50000	22.7	5.33	Cc1cc(-c2[nH]nc(C(=O)N3CCC(CN)CC3)c2C(C)C)cn2ncnc12 [Example 61]
9030	0.56	0.63	Cc1cc(-c2[nH]nc(-c3cccnc3)c2C(C)C)cn2ncnc12 [Example 224]
> 50000	102	118	COc1cc(-c2[nH]nc(-c3ccc(C4CCN(CC(C)(C)O)CC4)cn3)c2C(C)C)cn2ncnc12 [Example 391]
43200	11.7	23.8	Cc1cc(-c2[nH]nc(C(=O)N[C@H]3CC[C@@H](NCc4cccnc4)CC3)c2C(C)C)cn2ncnc12 [Example 95]
6970	2.08	2.7	Cc1cc(-c2[nH]nc(C(=O)NCC3CN(C4COC4)CCO3)c2C(C)C)cn2ncnc12 (stereo not drawn) [Example 142]
6320	4.17	35.6	Cc1cc(-c2[nH]nc(C(=O)NC3CCN(CCC(F)(F)F)CC3)c2C(C)C)cn2ncnc12 [Example 69, 4-isopropyl-5-(8-methyl-[1,2,4]triazolo[1,5-a]pyridin-6-yl)-N-(1-(3,3,3-trifluoropropyl)piperidin-4-yl)-1H-pyrazole-3-carboxamide]
6840	2.92	0.56	Cc1cc(-c2[nH]nc(C(=O)NC[C@H]3CC[C@H](N)CC3)c2C(C)C)cn2ncnc12 [Example 47]
6230	3.72	2.82	Cc1cc(-c2[nH]nc(-c3ccc(NC(C)C)nc3)c2C(C)C)cn2ncnc12 [Example 240]
14300	8.95	31	Cc1cc(-c2[nH]nc(C(=O)NC3CCN(Cc4ncn(C)n4)CC3)c2C(C)C)cn2ncnc12 [Example 158]
1910	0.71	3.44	Cc1cc(-c2[nH]nc(C(=O)NC3CCN(CC(C)(C)C)CC3)c2C(C)C)cn2ncnc12 [Example 74]
> 50000	6.33	238	Cc1cc(-c2[nH]nc(C(=O)NC3CCN(CCN(C)C)CC3)c2C(C)C)cn2ncnc12 [Example 83]
